PMC4491418, “Characterisation of Dermanyssus gallinae glutathione S-transferases and their potential as acaricide detoxification proteins” (Parasites & Vectors, 2015)

Key:
Format in all cases: biochemical
rDeg-GST-2 [1] = molecular target: T1, rDeg-GST-2 (Dermanyssus gallinae, UniProt A0A0H4FKJ9); assay: GSH-CDNB conjugation, A340nm; settings: 0-1 mM CDNB, 2 mM GSH, pH 6.5
T1 construct: full-length CDS (633 bp ORF, 210 aa) in pETSUMO; N-terminal His-tag and SUMO fusion kept; E. coli BL21-CodonPlus(DE3)-RIL; HisTrap purified
T1 sequence (A0A0H4FKJ9 1-210): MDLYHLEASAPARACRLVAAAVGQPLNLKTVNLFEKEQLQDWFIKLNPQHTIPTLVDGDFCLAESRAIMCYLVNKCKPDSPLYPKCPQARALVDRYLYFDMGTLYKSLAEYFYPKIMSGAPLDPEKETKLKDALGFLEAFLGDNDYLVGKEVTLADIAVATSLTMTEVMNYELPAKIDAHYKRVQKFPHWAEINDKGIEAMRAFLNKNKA

rDeg-GST-1 [2] = molecular target: T2, rDeg-GST-1 (Dermanyssus gallinae, UniProt A0A0H4FNI7); assay: GSH-CDNB conjugation, A340nm; settings: 0-1 mM CDNB, 2 mM GSH, pH 6.5
T2 construct: full-length CDS (735 bp ORF, 244 aa) in pETSUMO; N-terminal His-tag and SUMO fusion kept; E. coli BL21-CodonPlus(DE3)-RIL; HisTrap purified
T2 sequence (A0A0H4FNI7 1-244): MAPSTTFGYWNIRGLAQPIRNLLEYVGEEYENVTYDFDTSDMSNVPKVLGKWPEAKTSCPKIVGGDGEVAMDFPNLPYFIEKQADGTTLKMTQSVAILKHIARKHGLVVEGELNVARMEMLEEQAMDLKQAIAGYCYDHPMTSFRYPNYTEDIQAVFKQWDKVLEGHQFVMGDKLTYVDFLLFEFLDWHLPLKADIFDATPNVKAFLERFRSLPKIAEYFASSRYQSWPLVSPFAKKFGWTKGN

rDeg-GST-3 [3] = molecular target: T3, rDeg-GST-3 (Dermanyssus gallinae, UniProt A0A0H4FPP8); assay: GSH-CDNB conjugation, A340nm; settings: 0-1 mM CDNB, 2 mM GSH, pH 6.5
T3 construct: full-length CDS (669 bp ORF, 222 aa) in pETSUMO; N-terminal His-tag and SUMO fusion kept; E. coli BL21-CodonPlus(DE3)-RIL; HisTrap purified
T3 sequence (A0A0H4FPP8 1-222): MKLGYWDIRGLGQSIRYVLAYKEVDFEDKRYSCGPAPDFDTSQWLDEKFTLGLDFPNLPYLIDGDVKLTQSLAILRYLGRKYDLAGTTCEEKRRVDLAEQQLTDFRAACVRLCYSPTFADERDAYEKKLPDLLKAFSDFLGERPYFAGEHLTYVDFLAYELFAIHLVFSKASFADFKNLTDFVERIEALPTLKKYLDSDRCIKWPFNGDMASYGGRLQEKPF

rDeg-GST-2 [4] = molecular target: T1, rDeg-GST-2; assay: inhibition of GSH-CDNB conjugation, A340nm; settings: 100 µM; 1 mM CDNB, 2 mM GSH, pH 6.5 substrate buffer; 10 min preincubation at RT; mode not determined
Source text: inhibition of GSH-CDNB conjugation, A340nm on rDeg-GST-2

rDeg-GST-1 [5] = molecular target: T2, rDeg-GST-1; assay: inhibition of GSH-CDNB conjugation, A340nm; settings: 100 µM; 1 mM CDNB, 2 mM GSH, pH 6.5 substrate buffer; 10 min preincubation at RT; mode not determined
Source text: inhibition of GSH-CDNB conjugation, A340nm on rDeg-GST-1

rDeg-GST-3 [6] = molecular target: T3, rDeg-GST-3; assay: inhibition of GSH-CDNB conjugation, A340nm; settings: 100 µM; 1 mM CDNB, 2 mM GSH, pH 6.5 substrate buffer; 10 min preincubation at RT; mode not determined
Source text: inhibition of GSH-CDNB conjugation, A340nm on rDeg-GST-3

Structure (SMILES)	GSH-CDNB conjugation, A340nm (rDeg-GST-2 [1])	GSH-CDNB conjugation, A340nm (rDeg-GST-1 [2])	GSH-CDNB conjugation, A340nm (rDeg-GST-3 [3])	% reduction in Deg-GST activity ± SEM / rDeg-GST-2 (1.5 μg GST/well) (rDeg-GST-2 [4])	% reduction in Deg-GST activity ± SEM / rDeg-GST-1 (0.3 μg GST/well) (rDeg-GST-1 [5])	% reduction in Deg-GST activity ± SEM / rDeg-GST-3 (1.5 μg GST/well) (rDeg-GST-3 [6])
O=[N+]([O-])c1ccc(Cl)c([N+](=O)[O-])c1 [1-chloro-2,4-dinitrobenzene]	All three rDeg-GSTs were enzymically-active molecules capable of catalyzing the conjugation of GSH to CDNB	All three rDeg-GSTs were enzymically-active molecules capable of catalyzing the conjugation of GSH to CDNB	All three rDeg-GSTs were enzymically-active molecules capable of catalyzing the conjugation of GSH to CDNB	–	–	–
CCOP(=S)(OCC)ON=C(C#N)c1ccccc1 [Phoxim]	–	–	–	14.8 ± 1.5%	56.38 ± 3.0%	20.56 ± 2.5%
CC1(C)C(C=C(Cl)Cl)C1C(=O)OCc1cccc(Oc2ccccc2)c1 (stereo not shown) [Permethrin]	–	–	–	–	35.39 ± 0.9%	–
